In data set [1] the target is T1, SirT6 (Homo sapiens, UniProt Q8N6T7).
T1 construct: The protein expression and purification were the same as the full length SIRT6 as described above; made in house; host or cells: E. coli BL21 Codon-plus RIPL
Kind of data set: Activation of SIRT6 by nucleosides or nucleotides, HPLC of AADPR (Example 8). It is filed as biochemical. As to conditions: 800 μM NAD+, 500 μM H3 peptide, 11.3 μM SIRT6. As to the method:
Reactions containing 800 μM NAD^+, 500 μM H3 peptide, and 100 mM phosphate buffer at pH 7.5, with varying concentrations of nucleosides or nucleotides were initiated by addition of SIRT6 enzyme to a concentration of 11.3 μM. Reactions were incubated for 2 hours at 37° C. and quenched by addition of trifluoroacetic acid to pH 2. After centrifugation to remove precipitates, reactions were injected on HPLC for activity analysis. Production of 2′- and 3′-AADPR were analyzed at 260 nm.

For the next data set, the target named is T2, SirT6-DNA complex (Homo sapiens, UniProt Q8N6T7).
T2 construct: The protein expression and purification were the same as the full length SIRT6 as described above; made in house; host or cells: E. coli BL21 Codon-plus RIPL
T2 sequence (Q8N6T7 whole entry, one chain of several): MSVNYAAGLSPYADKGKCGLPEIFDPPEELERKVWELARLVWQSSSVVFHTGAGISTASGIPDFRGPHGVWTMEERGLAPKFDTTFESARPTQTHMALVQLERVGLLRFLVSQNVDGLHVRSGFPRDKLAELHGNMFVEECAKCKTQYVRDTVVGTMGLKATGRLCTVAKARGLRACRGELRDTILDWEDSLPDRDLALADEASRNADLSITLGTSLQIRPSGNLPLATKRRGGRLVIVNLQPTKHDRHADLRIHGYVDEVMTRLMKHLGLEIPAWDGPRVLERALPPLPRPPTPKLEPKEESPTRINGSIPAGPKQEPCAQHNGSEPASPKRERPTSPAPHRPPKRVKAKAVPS
Kind of data set: Suramin competition with binding of linearized DNA to SIRT6 (Example 6). The conditions noted are these: for Kd: read-out: Kd of suramin for dissociation of linearized DNA from SirT6. As to the method:
The linearized DNA was incubated with SirT6 and Ni-NTA resin. The resin was washed as described in Materials and Methods, and the complex of SirT6-DNA was dissociated by 1 mM suramin. The parallel experiments were done in the presence of 500 uM H3 peptide. DNA bound to SirT6 was quantified and fit to Michaelis-Menten equation to get Kd of DNA binding to the enzyme. […] The single stranded DNA was incubated with SirT6 and Ni-NTA resin. The resin was washed and the complex of SirT6-ssDNA was dissociated by 1 mM suramin. The parallel experiments were done in the presence of 500 uM H3 peptide. […] The linearized DNA was incubated with SirT6 and Ni-NTA resin with or without H3 peptide. After washing, the resin was incubated with different concentration of surmain. The dissociated DNA was quantified by gel electrophoresis. […] After the resin was washed, DNA was dissociated with 1 mM suramin and quantified by gel electrophoresis. Lane 1, 150 ng circular pSTBlue (C-pSTBlue); Lane 2, 150 ng pSTBlue cut with BamHI (B-pSTBlue); Lane 3, 150 ng pSTBlue cut with EcoRV (E-pSTBlue); Lane 4, circular pSTBlue bound to SirT6; Lane 5, pSTBlue cut with BamHI bound to SirT6; Lane 6, pSTBlue cut with EcoRV bound to SirT6; Lane 7, circular pSTBlue bound to SirT6 in the presence of H3; Lane 8, pSTBlue cut with BamHI bound to SirT6 in the presence of H3; Lane 9, pSTBlue cut with EcoRV bound to SirT6 in the presence of H3; Lane 10, DNA ladder.
In order to test if suramin competed with the binding of DNA to SIRT6, 20 ng/μl pSTBlue was incubated with 5 μM SIRT6, 25% slurry Ni-NTA resin, and/or 1 mM H3 peptide. After incubation for 1 hour at room temperature, the SIRT6-DNA-resin complex was washed with 10 and 20 mM imidazole, 100 mM phosphate buffer, pH 7.5 as described above. The SIRT6-DNA-resin complex was incubated with different concentrations of suramin. The dissociated DNA was then quantified by 0.8% agarose gel electrophoresis and the DNA level was fitted to Michaelis-Menten equation using the software Kaleidagraph.

Data set [2] concerns the target T1, SirT6. Kind of data set: Gel shift assay of DNA association to SirT6 (Example 5). It is filed as binding. As to conditions: 1 mM suramin; 50 ng/μl linearized pSTBlue, 10 μM SirT6. The procedure:
Lane 1, DNA+NAD; Lane 2, DnA+H3; Lane 3, DNA+NAD+H3; Lane 4, DNA+SirT6; Lane 5, DNA+NAD+SirT6; Lane 6, DNA+H3+SirT6; Lane 7, DNA+NAD+H3+SirT6; Lane 8, DNA+SirT6+1 mM suramin; Lane 9, DNA+NAD+SirT6+1 mM suramin; Lane 10, DNA+H3+SirT6+1 mM suramin; Lane 11, DNA+NAD+H3+SirT6+1 mM suramin; Lane 12, DNA only. […] Lane 1, DNA+H3; Lane 2, DNA+H4; Lane 3, DNA+SirT6; Lane 4, DNA+H3+SirT6; Lane 5, DNA+H4+SirT6; Lane 6, DNA+NAD+H3+SirT6; Lane 7, DNA+NAD+H4+SirT6; Lane 8, DNA+SirT6+1 mM suramin; Lane 9, DNA+H3+SirT6+1 mM suramin; Lane 10, DNA+H4+SirT6+1 mM suramin; Lane 11, DNA+NAD+H3+SirT6+1 mM suramin; Lane 12, DNA+NAD+H4+SirT6+1 mM suramin; Lane 13, DNA only. 6 μl of each sample involving 50 ng/μl linearized pSTBlue plasmid, 800 μM NAD, 10 μM SirT6, 480 μM H3/H4, and/or 1 mM suramin were loaded to 0.6% native agarose gel containing ethidium bromide and ran at 100 V for one and half hours. DNA bound to SirT6 stayed in the wells and free DNA ran to the bottom of the gel. The top arrow indicated the large complex formed by DNA and SirT6.
The plasmid pSTBlue was linearized by EcoRI, BamHI, or EcoRV, and then purified by DNA gel extraction kit (Novagen) or […]™ III kit (MP Biomedicals, LLC). 6 μl of each sample contained 50 ng/μl of linearized pSTBlue, 800 μM NAD, 10 μM SirT6/truncated form, 480 μM H3, and/or 1 mM suramin as indicated. […]
(In general: Mobility shift assays separate free from complexed probe on a gel.)

Data set [3] addresses T3, truncated SirT6 (deletion of N terminal 17 amino acids) (Homo sapiens, UniProt Q8N6T7).
T3 construct: The truncated SIRT6 was cloned similarly with the full length SIRT6; poly-histidine (pET28a) (N); made in house; host or cells: E. coli BL21 Codon-plus RIPL
Kind of data set: Deacetylation rate of truncated SirT6 with suramin or single stranded DNA. The class given is biochemical. The conditions noted are these: 50 μM suramin or 100 ng/μl single stranded DNA; 800 μM NAD, 480 μM H3, 10 μM enzyme. The text has this:
The deacetylation rate of different truncated SirT6 was normalized to the rate of full length SirT6 for the comparison.
The truncated SIRT6 was cloned similarly with the full length SIRT6. The primers used in the cloning of different truncated SIRT6 are the following: SIRT6Δ2-7 Forward 5′ GCTAGC ATGGGGCTGTCGCCGTACGCG 3′ (SEQ ID NO: 4); SIRT6Δ2-12 Forward 5′ GCTAGC ATG […] 3′ (SEQ ID NO: 5); SIRT6Δ2-18 Forward 5′ GCTAGC ATGGGCCTCCCGGAGATCTTCGAC 3′ (SEQ ID NO: 6); SIRT6Δ2-51 Forward 5′ 5′ GCTAGC ATGACGGGTGCCGGCATCAGCACT 3′ (SEQ ID NO: 7). The common reverse primer is 5′[…] 3′ (SEQ ID NO: 8). The truncated SIRT6 was amplified by PCR reaction. The PCR product was then ligated into pSTblue-1 (Novagen). After digestion with NheI and BamHI, the fragment containing SIRT6 gene was ligated into pET28a vector (Novagen). The SIRT6 truncated sequence in pET28a plasmid was confirmed by DNA sequencing, and the plasmid was then transformed into BL21Codon-plus RIPL cells (Stratagene). The protein expression and purification were the same as the full length SIRT6 as described above.

Data set [4] deals with T1, SirT6. Kind of data set: Determination of Kd of suramin for SirT6 activation by HPLC (Example 1). The class given is biochemical. As to the method:
FIG. 2C depicts the determination of Kd of suramin for activation of SirT6. […] After 2 hours incubation at 37° C., the deacetylated H3 was separated from H3 by gradient (0˜30%) acetonitrile in 0.1% TFA using a C18 column, and analyzed by integrating its area at 215 nm wavelength.
The precipitated proteins and other insolubles were removed by centrifugation at 15,000 rpm for 5 minutes. The peptides were separated by a Waters Xterra RP-18 column using a gradient of 0-30% acetonitrile in 0.1% trifluoroacetic acid. […] The turnover rates versus […] were plotted and fitted to the equation: Activation (Fold)=1+m*x/(Kd+x) using the software Kaleidagraph.

Data set [5] concerns the target T1, SirT6. Kind of data set: Determination of Kd of DNA for SirT6 activation by HPLC (Example 2). It is filed as biochemical. As to conditions: 800 μM NAD, 480 μM H3, 10 μM SirT6, 2 hours 37° C.; unit given as mM. The procedure: FIG. 5A depicts a schematic of DNA structure. […] After 2 hours incubation at 37° C., either the deacetylated H3 was separated from H3 in the reaction containing the digested calf thymus DNA or AADPR was separated from other components in the reaction containing ssDNA, the plasmid, or dsDNA.
The plasmid pSTBlue was digested with BamHI and EcoRV and purified by […]™ III kit. […] The AADPR was separated by HPLC and the quantified data were fit into Michaelis-Menten equation to get Km of H3.
In the enzymatic reaction, the following DNA was used.
Calf thymus DNA (USB Corporation), which was digested with EcoRI and then purified using Spinprep Gel DNA Kit (Novagen);
ssDNA (5′ […] 3′ (SEQ ID NO: 9), Integrated DNA Technologies);
dsDNA (forward 5′ […] 3′ (SEQ ID NO: 10), reverse 5′ […] 3′ (SEQ ID NO: 11), Integrated DNA Technologies); and
pSTBlue plasmid, which was amplified using DH5α cells and purified by WIZARD™ PLUS (Midiprep) DNA purification system (Promega).
The precipitated proteins and other insolubles were removed by centrifugation at 15,000 rpm for 5 minutes. DNA in the supernatant was further removed by centrifugation at 15,000 rpm for 10 minutes using Microcon with 10 kDa cutoff (Millipore). In the experiment with the digested calf thymus DNA, the peptides were separated by a Waters Xterra RP-18 column using a gradient of 0-30% acetonitrile in 0.1% trifluoroacetic acid. […]

Read-outs that look alike come from different tables or passages of the source. Bounds are passed on as bounds.

For orientation: Kd means the free concentration of one partner at which half of the binding sites on the other are occupied at equilibrium, for simple one-to-one binding.

T1 sequence (Q8N6T7 whole entry): as the sequence (Q8N6T7 whole entry, one chain of several) above
T3 sequence (Q8N6T7 with tags, fused parts or gaps): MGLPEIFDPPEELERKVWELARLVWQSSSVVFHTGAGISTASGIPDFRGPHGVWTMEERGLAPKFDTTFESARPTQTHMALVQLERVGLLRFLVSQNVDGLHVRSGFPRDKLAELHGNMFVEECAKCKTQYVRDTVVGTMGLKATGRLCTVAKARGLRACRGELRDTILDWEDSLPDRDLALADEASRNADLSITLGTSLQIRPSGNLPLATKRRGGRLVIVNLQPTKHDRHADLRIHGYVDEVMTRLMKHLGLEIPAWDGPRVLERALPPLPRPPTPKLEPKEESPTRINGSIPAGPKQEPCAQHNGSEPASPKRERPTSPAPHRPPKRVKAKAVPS

With `NC(=O)c1ccc[n+]([C@@H]2O[C@H](COP(=O)([O-])O)C(O)C2(Cl)Cl)c1` (stereo partly drawn) [gem-diCl-NMN], the SIRT6 activated at SirT6 [1] (at 500 μM) is recorded as 90% activated at 500 μM.

`NC(=O)c1ccc[n+]([C@@H]2O[C@H](CO)C(O)C2(Cl)Cl)c1` (stereo partly drawn) [gem-diCl-NR] displayed an SIRT6 activated at SirT6 [1] (at 1 mM) of 30% activated at 1 mM.

Consider `NC(=O)c1ccc[n+]([C@@H]2O[C@H](CO)[C@@H](O)C2(F)F)c1` [gem-diF-NR, 1-(2′-deoxy-2′,2′-difluoro-ribofuranosyl)-nicotinamide], for which the SIRT6 activated at SirT6 [1] (at 500 μM) is recorded as 30% activated at 500 μM.

Turning to `NC(=O)c1ccc[n+]([C@@H]2O[C@H](CO)[C@H](O)C2F)c1` (stereo partly drawn) [ribo-F-NR, 1-(2-deoxy-2-fluoro-D-ribofuranosyl)-nicotinamide], the SIRT6 activated on SirT6 [1] (at 550 μM) came out at 17% activated at 550 μM.

Turning to `Cc1ccc(C(=O)Nc2ccc(S(=O)(=O)O)c3cc(S(=O)(=O)O)cc(S(=O)(=O)O)c23)cc1NC(=O)c1cccc(NC(=O)Nc2cccc(C(=O)Nc3cc(C(=O)Nc4ccc(S(=O)(=O)O)c5cc(S(=O)(=O)O)cc(S(=O)(=O)O)c45)ccc3C)c2)c1` [suramin], the “Vmax of dissociated DNA” value at SirT6-DNA complex (in the absence of H3) is 6.37 ng/µL; at SirT6-DNA complex (in the presence of H3), 17.8 ng/µL. The Kd at SirT6-DNA complex (in the absence of H3) amounted to 72.4 µM; on SirT6-DNA complex (in the presence of H3), 129 µM; on SirT6 [4] it was 54.7 µM. Further, on SirT6 [2], the “Association of DNA to SirT6” value was “weakened”. Besides, the “Activation of truncated SirT6 deacetylation” value in data set [3] is reported as “lost of activation”.

B1: dsDNA: dsDNA, forward SEQ ID NO: 10, reverse SEQ ID NO: 11, Integrated DNA Technologies (nucleic acid)
sense: AAGCATTTATCAGGGTTATTGTCTCATGAGCGGAT
antisense: ATCCGCTCATGAGACAATAACCCTGATAAATGCTT
modifications: DNA, backbone and methylation of C not given here
As for B1, the Kd with SirT6 [5] was over 10 mM.

The values above are taken from patent US9322049B2, “Activation and activators of SirT6” (CORNELL UNIVERSITY, priority 2009, dated 2016).
